Source: ChEMBL document CHEMBL3507680, “University of Dundee, Gates Library screen for HepG2 cell viability”

Assay: Human HepG2 cell viability assay in 384 well format
Assay type: toxicity, cell-based
Design: dose 125 nL, time 70.5 hour; cytotoxicity at 70.5 h: concentration not given beside the values
Settings: HepG2 cells, read-out: Inhibition

Row | Compound | cytotoxicity at 70.5 h
1 | Cc1nc([C@@H]2C[C@@H]3CCN(C(=O)Cc4ccsc4)C[C@H]3O2)no1 | -13.8%
2 | COc1ncccc1C(=O)N1CCn2c(COCC3CC3)cnc2C1C (stereo not given) | -0.554%
3 | O=C(NCCO)c1ccn(-c2ccc3ccccn23)n1 | 25.4%
4 | CC(C)c1nccc([C@H]2C[C@@H]3CCN(Cc4ccco4)C[C@H]3O2)n1 | -9.27%
5 | COC[C@@H]1CC[C@H]2[C@H](CCN2S(=O)(=O)c2cccc(C)c2)O1 | -11.1%
6 | CC(C)CNC(=O)c1ccc2nnc(C3CCN(S(C)(=O)=O)C3)n2c1 (stereo not given) | -19.7%
7 | O=c1cc(Cn2cncn2)nc2n1CCCN(CC1CC1)C2 | -33%
8 | Cc1ccc(CN2CCCn3c(nc(Cn4cncn4)cc3=O)C2)s1 | -19.3%
9 | CS(=O)(=O)N1CCC2(CC1)CC(CC(=O)NC1CC1)c1ccccc12 (stereo not given) | -20.3%
10 | Fc1cccc(CN2CCO[C@H]3[C@@H](OCc4ccccn4)CC[C@@H]32)c1 | -15.5%
11 | Cn1cc(CNCC2Cn3nnc(-c4ccccc4)c3CO2)cn1 (stereo not given) | -16.3%
12 | Cn1cc(CN2CCC3(CCCN3S(C)(=O)=O)CC2)cn1 | 12.4%
13 | Cc1ccsc1C(=O)N1Cc2ccccc2C2(CCN(C)CC2)C1 | -6.4%
14 | CCO[C@H]1CO[C@@]2(CCCN(S(=O)(=O)c3ccccc3)C2)C1 | 1.01%
15 | OCCNc1cc(-c2ccccc2)ncn1 | -1.96%
16 | OCCNc1cc(-c2ccncc2)ncn1 | 0.654%
17 | C[C@H](O)CNc1cc(-c2ccccc2)ncn1 | -0.249%
18 | Cc1ncncc1-c1ccnc(NC(C)C)n1 | -2.82%
19 | C[C@H](O)CNc1cc(-c2ccncc2)ncn1 | -0.809%
20 | Cc1ccc2c(c1)[C@@H](CC(=O)N(C)C)CCO2 | -2.63%
21 | COc1cc(-c2cc(N)ncn2)cc(OC)c1OC | -6.28%
22 | COc1cc(-c2cc(OC)c(OC)c(OC)c2)ncn1 | -6.68%
23 | COCC(=O)NCC[C@H]1CC(C)(C)Oc2ccccc21 | -3.02%
24 | CN(C)c1nccc(NCc2cc(-c3ccco3)n[nH]2)n1 | -3.1%
25 | CN1CC(=O)c2sc(NCCc3ccccc3)nc2C1 | 30%
26 | Cc1ccc2c(c1)[C@@H](CC(=O)N1CCN(C)CC1)CCO2 | 3.15%
27 | CNCC[C@H]1CC(C)(C)Oc2ccc(OCC3CC3)cc21 | 7.09%

Row | Compound | cytotoxicity at 70.5 h
28 | O=c1[nH][nH]cc1-c1ccnc(NCCc2ccc(F)cc2)n1 | -6.1%
29 | CNCC(=O)Nc1cccc(-c2cnc(NCCO)nc2)c1 | -1.04%
30 | COCCCNc1nc(CNC(C)=O)cc(-c2ccco2)n1 | -8.32%
31 | CC1(C)C[C@H](CCNC(=O)c2ccncc2)c2ccccc2O1 | -10%
32 | Cc1[nH]c2ccccc2c1-c1ccnc(N[C@@H](CO)C(C)C)n1 | -3.22%
33 | CNc1ncc(-c2ccc(NC(=O)[C@@H]3CCCCN3)cc2)cn1 | -1.05%
34 | Cc1ncc(-c2ccnc(NCCO)n2)c(C2CCCCC2)n1 | 21.9%
35 | CC1(c2ccccc2)CCC(=O)N(CCN2CCOCC2)C1 (stereo not given) | -5.69%
36 | CN(C(=O)CC1=CCCCC1)C1CCCN(CCc2ccccc2)C1 (stereo not given) | -5.66%
37 | CCC(=O)Nc1cccc(OCC(=O)N(C)Cc2cc(COC)[nH]n2)c1 | -4.96%
38 | CC(=O)Nc1ccc(CNCc2cccnc2N(C)C)cc1 | 1.4%
39 | Cc1cccc(C2CCCN(C(=O)C3CCN(CC(N)=O)CC3)C2)c1 (stereo not given) | -17.7%
40 | Cc1ccc(C2(O)CCN(Cc3nnc(-c4cccnc4)o3)CC2)nc1 | -2.19%
41 | Cc1ccccc1CC1(C(=O)O)CCCN(c2ncccn2)C1 (stereo not given) | -7.63%
42 | NC(=O)Cn1ccnc1C1CCCN(CCSc2ccccc2)C1 (stereo not given) | -12.6%
43 | Cc1cc(F)ccc1OC1(C(=O)O)CCN(Cc2nccn2C)CC1 | -7.09%
44 | Cc1ncsc1CN1CC(C)(C2CC2)CC1=O (stereo not given) | -12.2%
45 | Cc1ccc(Cl)c(CN2CCN(C)C(C(=O)O)C2)c1F (stereo not given) | -5.85%
46 | COc1ccc(F)c(CN2CCCC(O)(CNCc3ccon3)C2=O)c1 (stereo not given) | 8.61%
47 | N#Cc1cccc(N2CCC(c3nccn3Cc3cscn3)CC2)n1 | -2.31%
48 | O=C(N[C@@H]1CCNC[C@H]1O)c1ccc(-c2ccc(F)cc2)cc1 | -1.9%
49 | Cc1ccc(-n2ccnc2-c2cn(C3CCNCC3)nn2)c(Cl)c1 | 2.06%
50 | Cc1cc(C)n(Cc2cc(C(=O)N[C@H]3CCCCNC3=O)n[nH]2)n1 | -3.71%
51 | CCNc1ccnc(N2CCN(Cc3ncccc3C)CC2)n1 | 3.6%
52 | CCCn1nc(C)c(CN2CC3(CCOC3)CCC2=O)c1C (stereo not given) | -8.62%
53 | Cc1ccc(OC2(C(=O)O)CCN(C(=O)c3ccccc3F)CC2)cn1 | -3.34%
54 | CN(C)c1nc(NCCc2ccccn2)ncc1F | 25.5%

Row | Compound | cytotoxicity at 70.5 h
55 | CN1CCN(Cc2c(Cl)ccc(O)c2Cl)CC1C(=O)O (stereo not given) | -16.7%
56 | CN1CCN(C[C@@H]2CN(C(=O)CCc3cn[nH]c3)C[C@@H]2CO)CC1 | -6.13%
57 | CN1CCN(C2CCCC2)C(CCO)C1 (stereo not given) | -1.81%
58 | COc1ccccc1OC1CN(c2ccncc2)C1 | -4.23%
59 | CC(C)n1ccnc1C1CCCN(c2cncc(N(C)C)n2)C1 (stereo not given) | 2.84%
60 | Cn1c(Cn2ncc(N3CCCCC3)cc2=O)nc2ccccc21 | 44.3%
61 | COC(=O)[C@@H](Nc1nc(C2CCCC2)nc2c1cnn2C)[C@@H](C)O | -11.8%
62 | CNc1cc(C)nc(N2CCC3(CC2)[C@H](O)C[C@@H]3OCCN(C)C)n1 | -1.9%
63 | Cc1n[nH]c(C)c1CCNC(=O)C1CCCN(Cc2ccco2)C1 (stereo not given) | 9.52%
64 | CC[C@H](C)[C@@H](CO)NC(C)Cc1ccc(C)cc1 (stereo not given in full) | -2%
65 | Cc1noc(C)c1CN1CCO[C@H]2CNC[C@H]21 | -6.78%
66 | O=C(c1ccco1)N1C[C@H]2CCCN(Cc3cccs3)[C@H]2C1 | 7.1%
67 | Cc1cnc(C(=O)N2C[C@@H]3CN(CC4CCCC4)CCO[C@@H]3C2)cn1 | 25.7%
68 | CN(C)C(=O)N1C[C@H]2CCC[C@@]2(COc2ccccn2)C1 | -8.44%
69 | c1cnc(N2CCC3(CCN(CC4CCOC4)C3)CC2)nc1 (stereo not given) | -17.9%
70 | Cc1noc(C)c1C(=O)N1C[C@H]2CCC[C@@]2(COc2ccccn2)C1 | -11.3%
71 | COc1ccc(CC(=O)N2C[C@@H]3COC[C@]3(CN(C)C)C2)cc1 | -17.9%
72 | O=C(Nc1cccnc1)[C@H]1C[C@H]2OCC[C@H]2N(C(=O)c2ccsc2)C1 | -15.4%
73 | Cc1oncc1C(=O)NCc1cc(=O)n2c(n1)CN(C)CCC2 | -14.9%
74 | CCC(CC)C(=O)N1CCC2(C1)CN(c1ccccc1)C(=O)CN2C (stereo not given) | -20.2%
75 | O=C(c1ccncc1)N1CCCC2(COCCN(c3ccccc3)C2)C1 (stereo not given) | -16.1%
76 | CN(C)[C@@H]1CN(Cc2ccco2)C[C@@H]2CCCO[C@@H]21 | -8.79%
77 | COCC1CC2(CCN(Cc3cnn(C)c3)CC2)CN1C(C)C (stereo not given) | -15.8%
78 | COc1ccc(CN2CCC3(CC2)NC(=O)CC3c2ccncc2)cc1 (stereo not given) | -7.29%
79 | c1cnc(N2CCC3(CCN(CC4CC4)CC3)CC2)nc1 | -15.1%
80 | Cc1noc(C)c1CN1CCO[C@H]2CN(CC3CC3)C[C@H]21 | -28.9%
